Assay: Lithium isotope levels in post-mortem neocortex (BA7), quadrupole inductively coupled plasma mass spectroscopy
Source text: Lithium (Li) isotope levels have been measured in post-mortem neocortex (BA7) of human subjects having bipolar disorder, without having bipolar disorder receiving lithium treatment at time of death. Neurologically intact individuals and subjects with schizophrenia were included as controls.
Bipolar brains show a 4% shift away from 7-Li within the total lithium content. Similar fractionation is not seen in schizophrenia or neurologically intact controls.

SMILES	shift away from 7-Li within the total lithium content (bipolar brains, FIG. 2, deviation from environmental distribution) [%]	fractionation (shift away from 7-Li) in brain (schizophrenia or neurologically intact controls)	brain penetration (relative to Li-7, stated as applicants' discovery)
[7Li] [7-Li]	4	not seen	–
[6Li] [Li-6]	–	–	better able to penetrate the brain

Reference: patent US20150342985A1, “COMPOSITIONS COMPRISING LITHIUM” (priority 2012, published 2015)
